Laboratory results as given in patent US20240252695A9, “RADIOLABELED ETHER DENDRIMER CONJUGATES FOR PET IMAGING AND RADIOTHERAPY” (Ashvattha Therapeutics, Inc., priority 2020, published 2024).

System: reactive microglia
Test: PET/CT imaging of neuroinflammation in 5×FAD transgenic mice vs wild type
Assay type: in vivo, mouse
Settings: 3.75 months of age
Text: To further evaluate the ability of ^18F-OP-801 to image neuroinflammation in neurogenerative diseases, the 5×FAD transgenic mouse model was used. 5×FAD transgenic mice (B6SJL-Tg (APPSwFlLon,PSEN1*M146L*L286V)6799Vas) expressed human APP and PSEN1 transgenes developing amyloid plaque within a few months after birth and previous studies with TSPO PET radiotracers have only been able to detect neuroinflammation around 6 months (˜26 weeks) of age with a high TPSO affinity radiotracer, ^18F-GE180. 5×FAD female mice and age matched controls were used at 3.75 months of age to evaluate ^18F-OP-801 compared to the TPSO radiotracer, ^18F-GE180. ^18F-OP-801 ([…]) was injected as an IV bolus into wild type (n=7) and 5×FAD females (n=12) at 3.75 months of age. ^18F-GE180 (150-250 μCi) was administered to the 5×FAD transgenic (n=5) and wild type (n=4) female mice at 3.75 months of age. Static 10-minute PET/CT images were acquired at 50-60 minutes post-injection.

For CCN(CC)C(=O)[C@H]1CCCc2c1c1c(OC)cccc1n2CC[18F] [^18F-GE180], the “PET signal in 5×FAD mice compared to wild type mice” value (50-60 minutes post-injection) was “minimal PET signal differences”, the “TG-to-WT ratio, Cortex” value (5xFAD mice) was 1.21 and the “TG-to-WT ratio, Hippocampus” value (5xFAD mice) was 1.24. The “TG-to-WT ratio, Whole Brain” value (5xFAD mice) was 1.21.
